Values joined by “and” are separate entries in the source; they are usually repeats but may differ in a detail not shown here. Equal entries are not always repeated.
Test system: 454973-116-R2-J3-PDC spheroids, viability, % test/control
Test: Anticancer human tumor 454973-116-R2-J3-PDC patient-derived pancreatic carcinoma cell line growth inhibition [GQUAD]
Conditions: spheroids with HUVEC and MSC; for viability, T/C: stronger effect = lower value
From the text: DNA G-quadruplex Stabilizer Agents in Combinations in Complex Spheroids
A high-throughput screen of multi-cell type tumor spheroids was designed to identify active combinations of DNA G-quadruplex stabilizer agents and targeted small molecules. Complex spheroids include a stromal component modeled by human endothelial cells (HUVEC) and fibroblasts modeled by human mesenchymal stem cells (MSCs). The concentration ranges selected for each drug and investigational agent were based upon clinically achievable concentrations if the clinical Cmax of the agent was known.
Compounds. The drugs and investigational agents: pidnarulex (CX-5461; NSC782164), APTO-253 (NSC789042), BRACO-19 (NSC847499), peposertib (NSC802822), ceralasertib (NSC780249), elimusertib (NSC800525), camonsertib (NSC841442), AZD-1390 (NSC803789), olaparib (NSC753686), talazoparib (NSC767125), ART-558 (NSC835418), sotorasib (NSC818433), MRTX-1133 (NSC836407), SN-38 (NSC673596), topotecan (NSC609699), etoposide (NSC141540), doxorubicin (NSC123127), gemcitabine (NSC613327), 5-fluorouracil (NSC19893), paclitaxel (NSC125973), vemurafenib (NSC761431), panobinostat (NSC761190), R-306465 (JNJ-16241199; NSC773264), adavosertib (NSC754352), TP-3654 (NSC805149), carboplatin (NSC241240), KSQ-4279 (NSC840948), and staurosporine (NSC755774) were obtained from the National Cancer Institute (NCI) Developmental Therapeutics Program Chemical Repository (34). The FDA-approved anticancer drug set is available from the NCI Developmental Therapeutics Program. […] The stock solutions were prepared in dimethyl sulfoxide (DMSO, Sigma-Aldrich, St. Louis, MO, cat. D2650) at 800-fold the tested concentration and stored at -70 degrees C prior to their use. All drugs and investigational agents were tested over a range starting from a high concentration at or near the clinical Cmax and decreasing in half-log increments. If the clinical Cmax for an agent had not been determined, the highest concentration tested was 10 microM.
2.3 Cell Culture. All cells were maintained in an incubator at 37 degrees C and 5% CO2 with 95% humidity. The PDC lines were cultured according to standard operating procedures established by the NCI PDMR. All PDCs were thawed and cultured in Matrigel-coated flasks prepared with a working solution of 1X Ham's F-12 nutrient mix, without supplementation (Invitrogen, cat. 11765054), 100 U/mL penicillin-streptomycin (Invitrogen, cat. 15140122), and 2.5% Matrigel (Corning Inc., cat. 354248) for the first three passages. The 857933-349-R-J2-PDC line was cultured in 6C/Colon 1B media, which includes advanced DMEM/F-12 (Thermo Fisher Scientific, cat. 12634028), 10 mM HEPES (Thermo Fisher Scientific, cat. 15630080), 1X GlutaMAX supplement (Thermo Fisher Scientific, cat. 35050061), 0.1 mg/mL primocin (InvivoGen, cat. ant-pm-2), 10% defined fetal bovine serum, heat inactivated (HyClone Laboratories Inc., cat. SH30070.03HI), 50% L-WRN conditioned media (ATCC, cat. CRL-3276), 1.25 mM N-Acetyl-L-cysteine (Sigma-Aldrich, cat. A9165), 10 mM nicotinamide (Sigma-Aldrich, cat. N0636), 1X B-27 supplement (Thermo Fisher Scientific, cat. 17504044), 1X N-2 supplement (Thermo Fisher Scientific, cat. 17502048), 10 microM Y-27632 dihydrochloride (Tocris Bioscience, cat. 1254), and 50 ng/mL human EGF recombinant protein (Thermo Fisher Scientific, cat. PHG0311). The 485176-168-R4-J1-PDC line was cultured in Panc media, which includes all 6C/Colon 1B media components plus 100 ng/mL human FGF-10 (Thermo Fisher Scientific, cat. 100-26), 500 nM SB-431542 (Selleckchem, cat. S1067), and gastrin (Tocris, cat. 3006).
[…]
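Further: spheroids exposed to compounds for seven days.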

SMILES: Cc1[nH]c2ccccc2c1CCNCc1ccc(/C=C/C(=O)NO)cc1
- viability, T/C (compound 0.000999 µM): 106% and 102% and 99.1%
- viability, T/C (compound 0.00316 µM): 112% and 98.9% and 102%
- viability, T/C (compound 0.00999 µM): 103% and 102% and 105%
- viability, T/C (compound 0.0316 µM): 87.6% and 82.6% and 84.8%
- viability, T/C (compound 0.0999 µM): 37.9% and 37.3% and 32%
- viability, T/C (compound 0.316 µM): 6.04% and 6.14% and 2.02%
- IC50 (curve of compound): 75.5 nM and 72.5 nM and 67.7 nM

SMILES: O=C(NO)c1cnc(N2CCN(S(=O)(=O)c3ccc4ccccc4c3)CC2)nc1
- viability, T/C (compound 0.0316 µM): 107% and 108% and 101%
- viability, T/C (compound 0.1 µM): 78.2% and 86.9% and 86.3%
- viability, T/C (compound 0.316 µM): 27.8% and 30.5% and 22.7%
- viability, T/C (compound 1 µM): 1.65% and 3.03% and 1.16%
- viability, T/C (compound 3.16 µM): 0.25% and 0.22% and 0.12%
- viability, T/C (compound 10 µM): 0.25% and 0.95% and 0.29%
- IC50 (curve of compound): 189 nM and 212 nM and 193 nM

SMILES: CC1COCCN1c1cc(-c2ccnn2C)c2ccnc(-c3ccn[nH]3)c2n1 (stereo not drawn)
- viability, T/C (compound 0.0316 µM): 93.7% and 96.6% and 80.7%
- viability, T/C (compound 0.1 µM): 60.6% and 68% and 55.6%
- viability, T/C (compound 0.316 µM): 29.6% and 31.4% and 26.2%
- viability, T/C (compound 1 µM): 26.3% and 24% and 18.6%
- viability, T/C (compound 3.16 µM): 26.5% and 25.6% and 19.4%
- viability, T/C (compound 10 µM): 24.5% and 24% and 22.7%
- IC50 (curve of compound): 148 nM and 176 nM and 124 nM

SMILES: CC1COCCN1c1cc(C2(O)CC3CCC(C2)O3)c2cnn(-c3ccn[nH]3)c2n1 (stereo not drawn) + Cc1cnc(CNC(=O)c2c(=O)c3ccc(N4CCCN(C)CC4)nc3n3c2sc2ccccc23)cn1
- IC50 (curve of first compound, second compound 0.0316 µM): 31.8 nM
- IC50 (curve of first compound, second compound 0.1 µM): < 31.6 nM
- IC50 (curve of first compound, second compound 0.316 µM): < 31.6 nM
- IC50 (curve of first compound, second compound 1 µM): < 31.6 nM
- IC50 (curve of first compound, second compound 3.16 µM): < 31.6 nM
- IC50 (curve of first compound, second compound 10 µM): < 31.6 nM
- viability, T/C (second compound 0.0316 µM, first compound 0.0316 µM): 50.7%
- viability, T/C (second compound 0.0316 µM, first compound 0.1 µM): 27.5%
- viability, T/C (second compound 0.0316 µM, first compound 0.316 µM): 19.5%
- viability, T/C (second compound 0.0316 µM, first compound 1 µM): 20.4%
- viability, T/C (second compound 0.0316 µM, first compound 3.16 µM): 18.7%
- viability, T/C (second compound 0.0316 µM, first compound 10 µM): 9.73%
- viability, T/C (second compound 0.1 µM, first compound 0.0316 µM): 35%
- viability, T/C (second compound 0.1 µM, first compound 0.1 µM): 22.3%
- viability, T/C (second compound 0.1 µM, first compound 0.316 µM): 19.1%
- viability, T/C (second compound 0.1 µM, first compound 1 µM): 19%
- viability, T/C (second compound 0.1 µM, first compound 3.16 µM): 17.7%
- viability, T/C (second compound 0.1 µM, first compound 10 µM): 12.7%
- viability, T/C (second compound 0.316 µM, first compound 0.0316 µM): 29.6%
- viability, T/C (second compound 0.316 µM, first compound 0.1 µM): 25.4%
- viability, T/C (second compound 0.316 µM, first compound 0.316 µM): 24.9%
- viability, T/C (second compound 0.316 µM, first compound 1 µM): 22%
- viability, T/C (second compound 0.316 µM, first compound 3.16 µM): 18.3%
- viability, T/C (second compound 0.316 µM, first compound 10 µM): 10.8%
- viability, T/C (second compound 1 µM, first compound 0.0316 µM): 38.9%
- viability, T/C (second compound 1 µM, first compound 0.1 µM): 29.1%
- viability, T/C (second compound 1 µM, first compound 0.316 µM): 27.5%
- viability, T/C (second compound 1 µM, first compound 1 µM): 23.8%
- viability, T/C (second compound 1 µM, first compound 3.16 µM): 20%
- viability, T/C (second compound 1 µM, first compound 10 µM): 11.7%
- viability, T/C (second compound 3.16 µM, first compound 0.0316 µM): 37.9%
- viability, T/C (second compound 3.16 µM, first compound 0.1 µM): 32.3%
- viability, T/C (second compound 3.16 µM, first compound 0.316 µM): 31.6%
- viability, T/C (second compound 3.16 µM, first compound 1 µM): 23.4%
- viability, T/C (second compound 3.16 µM, first compound 3.16 µM): 18.2%
- viability, T/C (second compound 3.16 µM, first compound 10 µM): 7.65%
- viability, T/C (second compound 10 µM, first compound 0.0316 µM): 0.12%
- viability, T/C (second compound 10 µM, first compound 0.1 µM): 0.16%
- viability, T/C (second compound 10 µM, first compound 0.316 µM): 0.21%
- viability, T/C (second compound 10 µM, first compound 1 µM): 0.15%
- viability, T/C (second compound 10 µM, first compound 3.16 µM): 0.23%
- viability, T/C (second compound 10 µM, first compound 10 µM): 0.19%

— PubChem BioAssay AID2060508 (Molecular Pharmacology Branch, DTP, NCI, 2025)
